Data reported in patent publication US5281628A, “9-amino-7-(substituted)-6-demethyl-6-deoxytetracyclines” (American Cyanamid Company, priority 1991, dated 1994).
Counter-ions that a name gives are not always drawn. Like-named read-outs stand apart in the source and are kept apart here.

Legend:
[1] = tested on: E. coli S30 Ribosomes, tetM Variant (tetM protected ribosomes); test: In vitro protein translation with E. coli S30 ribosomes, tetM variant; format: biochemical; settings: for inhibition of protein synthesis on tetM protected ribosomes (in words): coupled transcription and translation system
Protocol: The E. coli in vitro translation system can be used to study not only the mechanism of protein translation itself, but also the effect that various compounds may have on protein synthesis. The system can be set up to function as a coupled transcription and translation system or as a translation only system depending on whether DNA or RNA is added to initiate protein synthesis. In this way, compounds affecting either RNA synthesis and/or protein synthesis can be studied. Protein synthesis is monitored by the incorporation of radiolabeled amino acids into trichloroacetic acid precipitable material. The system used is based upon literature methods [G. Zubay, Ann. Rev. Genet., 7: 267-287(1973) and J. Collins, Gene, 6: 28-42 (1979)].
The system used to study tetracycline protein synthesis inhibition is as follows:
An S30 extract (supernatant from a 30,000×G centrifugation of lysed cells) of either tetracycline sensitive or tetracycline resistant (tetM+) cells is combined with a mixture of low molecular weight compounds required for protein synthesis which include a mixture of 19 amino acids, methionine, ^35 S-methionine, plasmid template DNA and either dimethylsulfoxide (DMSO) or the tetracycline to be tested dissolved and diluted in DMSO. This mixture is incubated at 37° C. for 30 minutes. Following the incubation, 2.5 μl of the 10 μl reaction is removed and added to 0.5 ml of 1N sodium hydroxide. The solution is incubated an additional 15 minutes at 37° C., to destroy any m-RNA and t-RNA. The incorporation of ^35 S-methionine is determined by precipitating the high molecular weight material in the sodium hydroxide aliquot with trichloroacetic acid (TCA), collecting the precipitated material on Whatman G/FC filters, drying the filters and counting the radioactivity retained on the filter. Percent inhibition (P.I.) of protein synthesis is determined by the following equation: [formula]

[2] = tested on: tetracycline sensitive and resistant Gram-positive and Gram-negative bacteria; test: In vitro antibacterial evaluation, statements on the whole panel; format: cell-based
Protocol: (§1) The minimum inhibitory concentration (MIC), the lowest concentration of the antibiotic which inhibits growth of the test organism, is determined by the microtiter broth dilution method using 0.1 ml Muller-Hinton II broth (Baltimore Biological Laboratories) per well. A suitable oxygen scavenger (i.e., cysteine or dithiothreitol) is added to the assay medium for the testing of compounds according to Formula I because of the sensitivity of those compounds to oxidation. An inoculum level of 1-5×10^5 CFU/ml and a range of antibiotic concentrations (32 0.004 μg/ml) are used.

[3] = tested on: S. haemolyticus AVAH 88-3; test: MIC, microtiter broth dilution; format: cell-based; settings: Staphylococcus haemolyticus, AVAH883, 18 h
Protocol: as §1

[4] = tested on: S. aureus CI 3300 (methicillin-resistant); test: MIC, microtiter broth dilution; format: cell-based; settings: Staphylococcus aureus, 18 h
Protocol: as §1

[5] = tested on: S. marcescens FPOR 87-33; test: MIC, microtiter broth dilution; format: cell-based; settings: Serratia marcescens, FPOR8733, 18 h
Protocol: as §1

[6] = tested on: E. coli ATCC 25922; test: MIC, microtiter broth dilution; format: cell-based; settings: Escherichia coli, ATCC25922, 18 h
Protocol: as §1

[7] = tested on: E. coli UBMS 90-5 (tetracycline-sensitive); test: MIC, microtiter broth dilution; format: cell-based; settings: Escherichia coli, 18 h
Protocol: as §1

[8] = tested on: S. aureus IVES 1983 (methicillin-resistant); test: MIC, microtiter broth dilution; format: cell-based; settings: Staphylococcus aureus, 18 h
Protocol: as §1

[9] = tested on: E. faecalis 12201 (vancomycin-resistant); test: MIC, microtiter broth dilution; format: cell-based; settings: Enterococcus faecalis, 18 h
Protocol: as §1

[10] = tested on: E. faecalis ATCC 29212; test: MIC, microtiter broth dilution; format: cell-based; settings: Enterococcus faecalis, ATCC29212, 18 h
Protocol: as §1

[11] = tested on: S. aureus Smith (sens); test: Acute lethal infections in mice; format: in vivo; settings: Staphylococcus aureus, 168 h, Single Dose, 7 day survival
Protocol: (§2) The therapeutic effects of tetracyclines are determined against acute lethal infections with various staphylococcal and E. coli strains. Female mice, strain CD-1 Charles River Laboratories, (20±2 grams) are challenged by an intraperitoneal injection of sufficient bacteria (suspended in broth or hog gastric mucin) to kill non-treated controls within 24-48 hours. Antibacterial agents, contained in 0.5 ml of 0.2% aqueous agar, are administered subcutaneously or orally 30 minutes after infection. When an oral dosing schedule is used, animals are deprived of food for 5 hours before and 2 hours after infection. Five mice are treated at each dose level. The 7 day survival ratios from three separate tests are pooled for calculation of median effective dose (ED50).

[12] = tested on: S. aureus UBMS 90-2 (tetM); test: Acute lethal infections in mice; format: in vivo; settings: Staphylococcus aureus, 168 h
Protocol: as §2

[13] = tested on: E. coli 311 (sens); test: Acute lethal infections in mice; format: in vivo; settings: Escherichia coli, sc, 168 h, Subcutaneous, Single Dose, 7 day survival
Protocol: as §2

[14] = tested on: E. coli UBMS 90-4 (tetM); test: Acute lethal infections in mice; format: in vivo; settings: Escherichia coli, sc, 168 h
Protocol: as §2

[15] = tested on: S. aureus UBMS 90-1 (tetM); test: Acute lethal infections in mice; format: in vivo; settings: Staphylococcus aureus, sc, 168 h
Protocol: as §2

[16] = tetM S30 with DTT, 1:2 Dilution
[17] = tetM S30 with DTT, 1:4 Dilution
[18] = tetM S30 with DTT, 1:8 Dilution
[19] = tetM S30 with DTT, 1:16 Dilution
[20] = tetM S30 with DTT, 1:32 Dilution
[21] = tetM S30 with DTT, 1:64 Dilution
[22] = in the presence of cysteine (0.05%)

## CN(C)c1cc(N)c(O)c2c1C[C@H]1C[C@H]3[C@H](N(C)C)C(O)=C(C(N)=O)C(=O)[C@@]3(O)C(O)=C1C2=O [A, 9-Amino-7-(dimethylamino)-6-demethyl-6-deoxytetracycline hydrochloride]
[1]
  inhibition of protein synthesis on tetM protected ribosomes (in words): effective in inhibiting protein synthesis
[1]; tetM S30 no DTT, 1.0 mg/ml
  % Inhibition: 48%
  Counts: 129780
[1]; tetM S30 no DTT, 1:2 Dilution
  % Inhibition: 36%
  Counts: 158861
[1]; tetM S30 no DTT, 1:4 Dilution
  % Inhibition: 18%
  Counts: 203184
[1]; tetM S30 no DTT, 1:8 Dilution
  % Inhibition: 7%
  Counts: 231447
[1]; tetM S30 no DTT, 1:16 Dilution
  % Inhibition: 0%
  Counts: 305633
[1]; tetM S30 no DTT, 1:32 Dilution
  % Inhibition: 0%
  Counts: 349994
[1]; tetM S30 no DTT, 1:64 Dilution
  % Inhibition: 0%
  Counts: 310723
[1]; tetM S30 with DTT, 1.0 mg/ml
  % Inhibition: 68%
  Counts: 145068
[1]; [16]
  % Inhibition: 62%
  Counts: 168574
[1]; [17]
  % Inhibition: 49%
  Counts: 226708
[1]; [18]
  % Inhibition: 36%
  Counts: 284606
[1]; [19]
  % Inhibition: 16%
  Counts: 375989
[1]; [20]
  % Inhibition: 8%
  Counts: 412967
[1]; [21]
  % Inhibition: 0%
  Counts: 507461
[2]; S. aureus UBMS 88-5, 90-1 and 90-2, E. coli UBMS 89-1 and 90-4
  in vitro activity against tetracycline resistant strains carrying the tetM resistance determinant: good in vitro activity
[2]; susceptible strains, comparator B
  effectiveness vs. susceptible strains compared with B: equally as effective
[3]; S. haemolyticus AVAH 88-3, in the presence of cysteine (0.05%), read-out: MIC
  MIC: 0.06 µg/mL
[4]; [22]
  MIC: 0.25 µg/mL
[5]; [22]
  MIC: 4 µg/mL
[6]; [22]
  MIC: 0.25 µg/mL
[7]; [22]
  MIC: 0.25 µg/mL
[8]; [22]
  MIC: 0.5 µg/mL
[9]; [22]
  MIC: 0.5 µg/mL
[10]; [22]
  MIC: 0.06 µg/mL
[11]; Oral
  ED50: 0.81 mg/kg
[11]; sc, Subcutaneous
  ED50: 0.34 mg/kg
[12]; po
  ED50: 1.6 mg/kg
[12]; sc
  ED50: 0.53 mg/kg
[13]
  ED50: 2.8 mg/kg
[14]
  ED50: 24 mg/kg
[15]
  ED50: 0.3 mg/kg

## CN(C)c1ccc(O)c2c1C[C@H]1C[C@H]3[C@H](N(C)C)C(O)=C(C(N)=O)C(=O)[C@@]3(O)C(O)=C1C2=O [B, 7-(Dimethylamino)-6-demethyl-6-deoxytetracycline hydrochloride]
[1]
  inhibition of protein synthesis on tetM protected ribosomes (in words): unable to inhibit protein synthesis
[1]; tetM S30 no DTT, 1.0 mg/ml
  % Inhibition: 0%
  Counts: 281528
[1]; tetM S30 no DTT, 1:2 Dilution
  % Inhibition: 0%
  Counts: 258633
[1]; tetM S30 no DTT, 1:4 Dilution
  % Inhibition: 0%
  Counts: 248904
[1]; tetM S30 no DTT, 1:8 Dilution
  % Inhibition: 0%
  Counts: 289595
[1]; tetM S30 no DTT, 1:16 Dilution
  % Inhibition: 0%
  Counts: 287498
[1]; tetM S30 no DTT, 1:32 Dilution
  % Inhibition: 0%
  Counts: 262329
[1]; tetM S30 no DTT, 1:64 Dilution
  % Inhibition: 0%
  Counts: 249242
[1]; tetM S30 with DTT, 1.0 mg/ml
  % Inhibition: 17%
  Counts: 371475
[1]; [16]
  % Inhibition: 26%
  Counts: 331439
[1]; [17]
  % Inhibition: 17%
  Counts: 373168
[1]; [18]
  % Inhibition: 6%
  Counts: 421533
[1]; [19]
  % Inhibition: 0%
  Counts: 493679
[1]; [20]
  % Inhibition: 0%
  Counts: 490283
[1]; [21]
  % Inhibition: 0%
  Counts: 452837
[2]; in the presence of cysteine versus without
  Antibacterial potency in the presence of cysteine: not enhanced
[3]
  MIC: 0.12 µg/mL
[4]; no cysteine stated
  MIC: 8 µg/mL
[5]; no cysteine stated
  MIC: 2 µg/mL
[6]; no cysteine stated
  MIC: 0.25 µg/mL
[7]; no cysteine stated
  MIC: 0.5 µg/mL
[8]; no cysteine stated
  MIC: 1 µg/mL
[9]; no cysteine stated
  MIC: 4 µg/mL
[10]; no cysteine stated
  MIC: 0.25 µg/mL
[11]; Oral
  ED50: 0.53 mg/kg
[11]; sc, Subcutaneous
  ED50: 0.32 mg/kg
[12]; po
  ED50: 1.8 mg/kg
[12]; sc
  ED50: 1.8 mg/kg
[13]
  ED50: 3.1 mg/kg
[14]
  ED50: > 256 mg/kg
[15]
  ED50: 1.7 mg/kg
